Assay results reported in US6235748A, “Oxo-substituted compounds, process of making, and compositions and methods for inhibiting parp activity” (Guilford Pharmaceuticals Inc., priority 2000, dated 2001).
Entries after “also recorded” stand apart in the source; their conditions may differ.

Assays:
[1] = biological target: T1, recombinant human PARP (Homo sapiens, UniProt P09874); experiment: PARP enzyme assay with purified recombinant human PARP, [3H]NAD; format: biochemical; details: TABLE VII; 25° C., 15 minutes; read-out: Approximate IC50's
T1 construct: purchased Trevigen (Gaithersburg, Md.)
T1 sequence (P09874 whole entry): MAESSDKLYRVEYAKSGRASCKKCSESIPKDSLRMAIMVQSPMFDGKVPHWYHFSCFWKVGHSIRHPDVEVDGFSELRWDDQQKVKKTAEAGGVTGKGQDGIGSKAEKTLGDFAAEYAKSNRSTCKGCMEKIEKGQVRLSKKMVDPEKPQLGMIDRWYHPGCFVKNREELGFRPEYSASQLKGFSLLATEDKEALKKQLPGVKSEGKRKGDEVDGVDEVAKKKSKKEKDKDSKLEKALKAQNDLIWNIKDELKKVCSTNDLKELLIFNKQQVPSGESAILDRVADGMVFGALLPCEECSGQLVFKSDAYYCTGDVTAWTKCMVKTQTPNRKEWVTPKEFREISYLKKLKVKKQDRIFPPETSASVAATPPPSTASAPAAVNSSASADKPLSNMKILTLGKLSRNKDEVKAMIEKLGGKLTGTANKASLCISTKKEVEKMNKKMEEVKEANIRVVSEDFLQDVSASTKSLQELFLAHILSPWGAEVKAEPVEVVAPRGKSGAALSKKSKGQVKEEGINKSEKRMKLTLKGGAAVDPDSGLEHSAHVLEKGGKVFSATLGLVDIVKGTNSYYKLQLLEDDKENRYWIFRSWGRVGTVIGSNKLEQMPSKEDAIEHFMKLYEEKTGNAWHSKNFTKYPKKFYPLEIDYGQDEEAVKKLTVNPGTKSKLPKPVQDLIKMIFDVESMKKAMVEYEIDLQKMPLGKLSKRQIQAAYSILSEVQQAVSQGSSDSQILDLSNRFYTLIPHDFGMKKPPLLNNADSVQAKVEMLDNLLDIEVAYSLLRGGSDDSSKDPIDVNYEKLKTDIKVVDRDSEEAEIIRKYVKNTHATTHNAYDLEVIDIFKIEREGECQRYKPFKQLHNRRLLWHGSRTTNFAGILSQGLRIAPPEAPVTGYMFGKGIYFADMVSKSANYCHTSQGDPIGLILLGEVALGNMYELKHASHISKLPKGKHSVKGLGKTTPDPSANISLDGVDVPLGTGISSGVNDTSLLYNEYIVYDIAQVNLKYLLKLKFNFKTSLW
Procedure: The reaction was initiated by incubating the mixture at 25° C. After 15 minutes' incubation, the reaction was terminated by adding 500 microliters of ice cold 20% (w/v) trichloroacetic acid. The precipitate formed was transferred onto a glass fiber filter (Packard Unifilter-GF/B) and washed three times with ethanol. After the filter was dried, the radioactivity is determined by scintillation counting.

[2] = tested on: ischemia and reperfusion of the heart in rabbits; details: cited from earlier work
[3] = tested on: focal cerebral ischemia in male Long-Evans rats; experiment: Infarct in focal cerebral ischemia: distal MCA cauterization with bilateral temporary CCA occlusion; format: in vivo, rat (Long-Evans); details: for cross-sectional infarct area distribution, result in words: FIG. 1; for damaged (infarct) volume: mean±SD
Procedure: (§1) Focal cerebral ischemia was produced by cauterization of the right distal MCA (middle cerebral artery) with bilateral temporary common carotid artery occlusion in male Long-Evans rats for 90 minutes. All procedures performed on the animals were approved by the University Institutional Animal Care and Use Committee of the University of Pennsylvania. A total of 42 rats (weights: 230-340 g) obtained from Charles River were used in this study. The animals fasted overnight with free access to water prior to the surgical procedure.
(§2) Two hours prior to MCA occlusion, varying amounts (control, n=14; 5 mg/kg, n=7; 10 mg/kg, n=7; 20 mg/kg, n=7; and 40 mg/kg, n=7) of the PARP inhibitor compound, 3,4-dihydro-5-[4-(1-piperidinyl)-butoxy]-1(2H)-isoquinolinone ("DPQ"), were dissolved in dimethyl sulfoxide (DMSO) using a sonicator. A volume of 1.28 ml/kg of the resulting solution was injected intraperitoneally into fourteen rats.
(§3) The rats were then anesthetized with halothane (4% for induction and 0.8%-1.2% for the surgical procedure) in a mixture of 70% nitrous oxide and 30% oxygen. The body temperature was monitored by a rectal probe and maintained at 37.5±0.5° C. with a heating blanket regulated by a homeothermic blanket control unit (Harvard Apparatus Limited, Kent, U.K.). A catheter (PE-50) was placed into the tail artery, and arterial pressure was continuously monitored and recorded on a Grass polygraph recorder (Model 7D, Grass Instruments, Quincy, Mass.). Samples for blood gas analysis (arterial pH, PaO2 and PaCO2) were also taken from the tail artery catheter and measured with a blood gas analyzer (ABL 30, Radiometer, Copenhagen, Denmark). Arterial blood samples were obtained 30 minutes after MCA occlusion.
(§4) The head of the animal was positioned in a stereotaxic frame, and a right parietal incision between the right lateral canthus and the external auditory meatus was made. Using a dental drill constantly cooled with saline, a 3 mm burr hole was prepared over the cortex supplied by the right MCA, 4 mm lateral to the sagittal suture and 5 mm caudal to the coronal suture. The dura mater and a thin inner bone layer were kept, care being taken to position the probe over a tissue area devoid of large blood vessels. The flow probe (tip diameter of 1 mm, fiber separation of 0.25 mm) was lowered to the bottom of the cranial burr hole using a micromanipulator. The probe was held stationary by a probe holder secured to the skull with dental cement. The microvascular blood flow in the right parietal cortex was continuously monitored with a laser Doppler flowmeter (FloLab, Moor, Devon, U.K., and Periflux 4001, Perimed, Stockholm, Sweden).
Focal cerebral ischemia was produced by cauterization of the distal portion of the right MCA with bilateral temporary common carotid artery (CCA) occlusion by the procedure of Chen et al., "A Model of Focal Ischemic Stroke in the Rat: Reproducible Extensive Cortical Infarction", Stroke, 17:738-43 (1986) and/or Liu et al., "Polyethylene Glycol-conjugated Superoxide Dismutase and Catalase Reduce Ischemic Brain Injury", Am. J. Physiol., 256:H589-93 (1989), both of which are hereby incorporated by reference.
Specifically, bilateral CCA's were isolated, and loops made from polyethylene (PE-10) catheter were carefully passed around the CCA's for later remote occlusion. The incision made previously for placement of the laser doppler probe was extended to allow observation of the rostral end of the zygomatic arch at the fusion point using a dental drill, and the dura mater overlying the MCA was cut. […] The burr hole was covered with a small piece of Gelform, and the wound was sutured to maintain the brain temperature within the normal or near-normal range.
After 90 minutes of occlusion, the carotid loops were released, the tail arterial catheter was removed, and all of the wounds were sutured. Gentamicin sulfate (10 mg/ml) was topically applied to the wounds to prevent infection. […]

[4] = tested on: colitis in rats; details: colitis induced by intraluminal trinitrobenzene sulfonic acid in 50% ethanol; cited from earlier work
[5] = tested on: cell viability, glucose metabolism, and DNA synthesis; details: cited from earlier work
[6] = tested on: tumor cells; details: synergy: co-treatment with an alkylating drug; cited from earlier work
[7] = tested on: right parietal cortex blood flow; experiment: Microvascular blood flow in right parietal cortex by laser Doppler flowmetry; format: in vivo, rat (Long-Evans); details: for relative blood flow in the right parietal cortex on occlusion: control 20.8±7.7%
Procedure: as §4
Since the blood flow values obtained from the laser doppler were in arbitrary units, only percent changes from the baseline (prior to occlusion) were reported.

[8] = Arterial blood gases and mean arterial blood pressure in the focal cerebral ischemia model; format: in vivo, rat (Long-Evans); details: for MABP, ischemia: average during occlusion; for MABP, steady state: just prior to occlusion
Procedure: as §1, §2, §3
A "steady state" MABP was taken following completion of the surgical preparation, just prior to occlusion; an "ischemia" MABP was taken as the average MABP during occlusion.

[9] = tested on: NO-mediated vascular failure in endotoxic shock; details: in vivo; cited from earlier work

Work on `O=c1[nH]c2cc(F)ccc2c2ccccc12` yielded an IC50 [1] of ~200 nM.
For `Oc1cccc2c(O)nccc12` [1,5-dihydroxy-isoquinoline], the “reduction in infarct size” value ([2]; 1 mg/kg) is listed as 38-48%.
In the case of `O=C1NCCc2c(OCCCCN3CCCCC3)cccc21` [3,4-dihydro-5-[4-(1-piperidinyl)-butoxy]-1(2H)-isoquinolinon] [3,4-dihydro-5-[4-(1-piperidinyl)-butoxy]-1(2H)-isoquinolinone], the “cross-sectional infarct area distribution, result in words” value ([3]; 5 mg/kg and 20 mg/kg) is reported as “fell approximately halfway between the control and the 10 mg/kg curves”, the “infarct volume, result in words” value ([3]; 40 mg/kg) is reported as “less neuroprotective” and the “cross-sectional infarct area distribution, result in words” value ([3]; 40 mg/kg) is reported as “close to the control”. For the same compound, the “infarct volume, result in words” value ([3]; overall / dose comparison) was “U-shaped dose-response curve”.
For `NC(=O)c1cccc(N)c1` [3-aminobenzamide], the “effect on colitis, result in words” value [4] is given as “reduced the inflammatory response and restored the morphology and the energetic status of the distal colon”, the “effect on other metabolic processes, result in words” value [5] is given as “shown to affect cell viability, glucose metabolism, and DNA synthesis” and the “reduction in infarct size in the heart” value ([2]; 10 mg/kg, single injection one minute before occlusion or one minute before reperfusion) is given as 32-42%.
For `O=c1[nH]c2ccccc2c2ccccc12` [6(5H)-Phenanthridinone], the “effect on tumor cells, result in words” value [6] is listed as “reduced proliferation of tumor cells, and a marked synergistic effect when tumor cells are co-treated with this compound and an alkylating drug”.
In the case of `O=C1NCCc2c(OCCCCN3CCCCC3)cccc21` [DPQ, 3,4-dihydro-5-[4-(1-piperidinyl)-butoxy]-1(2H)-isoquinolinone], the “relative blood flow in the right parietal cortex on occlusion” value (from here on “relative blood flow”) ([7]; 5 mg/kg-treated group (n=7)) is reported as 18.7±7.4 % of the baseline, the “relative blood flow” value ([7]; 10 mg/kg-treated group (n=7)) is reported as 21.4±7.7 % of the baseline and the “relative blood flow” value ([7]; 40 mg/kg-treated group (n=7)) is reported as 19.3±11.2 % of the baseline. For the same compound, the “blood flow response to occlusion, result in words” value ([7]; control, 5, 10 and 40 mg/kg) was “no significant differences in the blood flow response to occlusion among the four groups”, the PaCO2 ([8]; 5 mg/kg-treated group) was 38.0 mm Hg and the PaO2 ([8]; 5 mg/kg-treated group) was 126 ± 20 mm Hg. The “arterial pH” value ([8]; 5 mg/kg-treated group) was 7.36, the “MABP, ischemia” value ([8]; 5 mg/kg-treated group, p < 0.01 vs steady state) was 91 ± 12 mm Hg and the “MABP, steady state” value ([8]; 5 mg/kg-treated group) was 78 ± 5 mm Hg. For the same compound, the PaCO2 ([8]; 10 mg/kg-treated group) was 39.3 mm Hg, the PaO2 ([8]; 10 mg/kg-treated group) was 125 ± 16 mm Hg and the “arterial pH” value ([8]; 10 mg/kg-treated group) was 7.34. For the same compound, the “MABP, ischemia” value ([8]; 10 mg/kg-treated group, p < 0.05 vs steady state) was 90 ± 14 mm Hg, the “MABP, steady state” value ([8]; 10 mg/kg-treated group) was 80 ± 9 mm Hg and the PaCO2 ([8]; 20 mg/kg-treated group) was 41.3 mm Hg. The PaO2 ([8]; 20 mg/kg-treated group) was 122 ± 14 mm Hg, the “arterial pH” value ([8]; 20 mg/kg-treated group) was 7.35 and the “MABP, ischemia” value ([8]; 20 mg/kg-treated group, p < 0.01 vs steady state) was 91 ± 12 mm Hg. For the same compound, the “MABP, steady state” value ([8]; 20 mg/kg-treated group) was 79 ± 10 mm Hg, the PaCO2 ([8]; 40 mg/kg-treated group) was 39.5 mm Hg and the PaO2 ([8]; 40 mg/kg-treated group) was 137 ± 17 mm Hg. For the same compound, the “arterial pH” value ([8]; 40 mg/kg-treated group) was 7.33, the “MABP, ischemia” value ([8]; 40 mg/kg-treated group, p < 0.05 vs steady state) was 88 ± 12 mm Hg and the “MABP, steady state” value ([8]; 40 mg/kg-treated group) was 78 ± 4 mm Hg. For the same compound, the “MABP, result in words” value ([8]; all five groups including control) was “MABP was significantly elevated following occlusion in all five groups, there were no significant differences in MABP during the occlusion period among the groups”, the “arterial blood gases (PaO2, PaCO2 and pH), result in words” value ([8]; control and treated groups) was “within the physiological range in the control and treated groups with no significant differences in these parameters among the five groups” and the “damaged (infarct) volume” value ([3]; 5 mg/kg i.p. 2 h before and 2 h after MCA occlusion, p<0.001 vs control (165.2±34.0 mm^3)) was 106.7±23.2 mm^3. For the same compound, the “damaged (infarct) volume” value ([3]; 10 mg/kg i.p. 2 h before and 2 h after MCA occlusion, p<0.001 vs control (165.2±34.0 mm^3)) was 76.4±16.8 mm^3, the “damaged (infarct) volume” value ([3]; 20 mg/kg i.p. 2 h before and 2 h after MCA occlusion, p<0.01 vs control (165.2±34.0 mm^3)) was 110.2±42.0 mm^3 and the “infarct volume, result in words” value ([3]; 40 mg/kg) was “no significant difference between the control and the 40 mg/kg-treated group”. For the same compound, the “damaged (infarct) volume” value ([3]; 40 mg/kg i.p. 2 h before and 2 h after MCA occlusion, not significant vs control (165.2±34.0 mm^3)) was 135.6±44.8 mm^3, the “damaged volume compared to control, result in words” value ([3]; 5, 10 and 20 mg/kg) was “significant decrease in the damaged volume” and the “infarct volume, result in words” value ([3]; overall / dose comparison) was “significant differences between the 5 mg/kg-treated group and the 10 mg/kg-treated group (p<0.02), and between the 10 mg/kg-treated group and the 40 mg/kg-treated group (p<0.01); also recorded: substantial reduction in infarct volume”.
In the case of `NC(=O)c1ccccc1` [benzamide], the “effect on other metabolic processes, result in words” value [5] is given as “shown to affect cell viability, glucose metabolism, and DNA synthesis”.
For `NC(=O)c1cccnc1` [nicotinamide], the “effect on vascular failure in endotoxic shock, result in words” value [9] is listed as “protects against delayed, NO-mediated vascular failure in endotoxic shock”.
